Measurements: patent publication US5506217A, “Phosphonates as anti-cancer agents” (The University of British Columbia, priority 1994, dated 1996)

Legend:
Assay type in all cases: cell-based
[1] = tested on: LLC tumor cells (Lewis Lung carcinoma); assay: colonogenic cell survival assay; details: Mus musculus, 120 h, read-out: Colonies formed after 5 days (% of control)
Experimental: Inhibition of colony formation in soft agar medium (colonogenic cell survival assay) is a more rigorous and direct measurement of cell kill or growth inhibition, and reflects the anti-cancer activity of the test compound. Briefly, tumor cells were cultured in petri dishes in methylcellulose, with or without a phosphonate test compound, and the number of colonies formed during a 5-day incubation period were counted.
Lewis Lung carcinoma (LLC), a cancer cell linc derived from […] of mice, was evaluated for its sensitivity to the cytotoxic activity of phosphonates of the following structure using the colonogenic cell survival assay (described above): [drawing 19]

[2] = tested on: 2008 (human ovarian cancer); assay: cytotoxicity IC50 (3H-thymidine uptake, colonogenic cell survival and MTT assays)
From the text: (§1) A combination of ^3 H-Thymidine incorporation assay, colonogenic cell survival assay and MTT assay was used to determine cytotoxicity data of phosphonates in several mouse and human tumor cell lines.

[3] = tested on: HCT-116 (human rectal cancer); assay: as above
From the text: as §1

[4] = tested on: HT29 (human colon cancer); assay: as above; details: HT-29
From the text: as §1

[5] = tested on: LLC (mouse Lewis lung carcinoma); assay: as above
From the text: as §1

[6] = tested on: MeWo (human melanoma cancer); assay: as above
From the text: as §1

[7] = tested on: P388 (mouse monocytic leukemia); assay: as above
From the text: as §1

[8] = tested on: P388 DR (drug resistant P388); assay: as above; details: Mus musculus
From the text: as §1

[9] = tested on: RPMI (advanced human melanoma); assay: as above
From the text: as §1

[10] = tested on: WEHI-3B (mouse granulocytic leukemia); assay: as above; details: WEHI3B
From the text: as §1

CCCCCCCCCCCCCCCCOCC(CCP(=O)([O-])OCC[N+](C)(C)C)OC (stereo not drawn) [compound VIII]
activity at 1.25 µM ([1]; 1.25 μM): 97 ± 9%
activity at 2.5 µM ([1]; 2.5 μM): 81 ± 6%
activity at 5 µM ([1]; 5 μM): 67 ± 5%
activity at 10 µM ([1]; 10 μM): 53 ± 4%
activity at 20 µM ([1]; 20 μM): 37 ± 5%
activity at 40 µM ([1]; 40 μM): 19 ± 6%
IC50 [2]: 27.8 µM
IC50 [3]: 12 µM
IC50 [4]: 9 µM
IC50 [5]: 10.6 µM
IC50 [6]: 15.7 µM
IC50 [7]: 4.5 µM
IC50 [8]: 5 µM
IC50 [9]: 9 µM
IC50 [10]: 2.5 µM
